Data published in PubChem BioAssay (NCI).
Where “and” joins values, the source holds several entries; their conditions need not be identical. Equal values may be shown once.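 How tested: cells in 96-well plates exposed to compound for 48 hours at five concentrations. GI50 is the concentration that inhibits growth by half. TGI: concentration producing complete growth inhibition.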

Key:
Assay in all cases: inhibition of tumour cell growth, NCI panel, 48 h
EKVX NSCLC = system: EKVX NSCLC
HT29 colon = system: HT29 colon
K-562 leukemia = system: K-562 leukemia
LOX IMVI melanoma = system: LOX IMVI melanoma
OVCAR-4 ovarian = system: OVCAR-4 ovarian
SK-OV-3 ovarian = system: SK-OV-3 ovarian
SN12C renal = system: SN12C renal
SNB-19 CNS = system: SNB-19 CNS
SNB-75 CNS = system: SNB-75 CNS
U251 CNS = system: U251 CNS

| Structure (SMILES) | TGI (EKVX NSCLC) | TGI (HT29 colon) | TGI (K-562 leukemia) [µM] | TGI (LOX IMVI melanoma) | TGI (OVCAR-4 ovarian) | TGI (SK-OV-3 ovarian) | TGI (SN12C renal) | TGI (SNB-19 CNS) | TGI (SNB-75 CNS) [µM] | TGI (U251 CNS) [µM] | GI50 (EKVX NSCLC) | GI50 (HT29 colon) | GI50 (K-562 leukemia) | GI50 (LOX IMVI melanoma) | GI50 (OVCAR-4 ovarian) | GI50 (SK-OV-3 ovarian) | GI50 (SN12C renal) | GI50 (SNB-19 CNS) | GI50 (SNB-75 CNS) | GI50 (U251 CNS) |
| --- | --- | --- | --- | --- | --- | --- | --- | --- | --- | --- | --- | --- | --- | --- | --- | --- | --- | --- | --- | --- |
| COc1ccc(C2ON(c3cccc(C)n3)CC=C2C)cc1 (stereo not given) | > 100 µM | > 100 µM | > 100 | > 100 µM | > 100 µM | > 100 µM | > 100 µM | > 100 µM | > 100 | > 100 |  |  |  |  |  |  |  |  |  |  |
| C[N+]1=C(/C=C\C=C\c2ccccc2)C(C)(C)c2ccccc21 | 14.4 µM | 9.09 µM | 7.28 | 2.7 µM | 13.8 µM | 23.9 µM | 12.4 µM | 10.8 µM | 16.2 | 4.18 | 2.42 µM | 2.6 µM | 0.442 µM | 1.31 µM | 2.69 µM | 11.3 µM | 0.863 µM | 2.79 µM | 3.73 µM | 1.59 µM |
| COC(=O)[C@@H](C)C[C@H](Cc1ccccc1)NC(=O)c1csc([C@@H](C[C@H](C(C)C)N(C)C(=O)[C@@H](NC(=O)[C@H]2CCCCN2C)C2CC2)OC(C)=O)n1 | > 16.5 µM | 0.00135 µM and 0.00208 µM | > 16.5 | > 16.5 µM | > 16.5 µM | > 16.5 µM | > 16.5 µM | > 16.5 µM | > 16.5 | > 16.5 | 0.0046 µM and 0.00165 µM | 0.000264 µM and 0.00165 µM | 0.000313 µM and 0.00165 µM | 0.000562 µM and 0.00165 µM | 0.00909 µM and 0.006 µM | 0.000604 µM and 0.00165 µM | 0.00115 µM and 0.00165 µM | 0.000552 µM and 0.00165 µM | 0.000383 µM and 0.00165 µM | 0.000457 µM and 0.00165 µM |
| COc1cc(Nc2ncc(F)c(Nc3ccc4c(n3)N(COP(=O)(O)O)C(=O)C(C)(C)O4)n2)cc(OC)c1OC | 13.7 µM and > 10 µM | 10.7 µM and > 10 µM | > 100 | 2.99 µM and 2.46 µM | 6.31 µM and 6.78 µM | 3.46 µM and 2.98 µM | 16.6 µM and > 10 µM | 21.3 µM and > 10 µM | 1.52 | > 100 | 2.19 µM and 1.93 µM | 1.66 µM | 5.3 µM and 3.41 µM | 1.38 µM and 1.09 µM | 1.69 µM and 1.74 µM | 0.972 µM and 0.707 µM | 1.01 µM and 1.05 µM | 2.68 µM and 2.84 µM | 0.319 µM | 7.55 µM and 2 µM |
| CCCCCCCc1cc2c3c(nc4ccccc42)C(=O)c2cccnc2-c3n1 | 9.14 µM | 27.7 µM | > 24.2 | 7.29 µM | 13.8 µM | 28.6 µM | 10.8 µM | 7.31 µM | 10.1 | 8.05 | 4.5 µM | 5.99 µM | 1.29 µM | 2.19 µM | 5.74 µM | 15.3 µM | 4.81 µM | 2.17 µM | 5.11 µM | 2.96 µM |
| Cn1cc(-c2ccc(-c3ccc(C4=NC5(CC5)C(=O)N4C[C@@H]4CCN(C(=O)C5CC5)C4)cc3)cc2)cn1 | 55.8 µM | > 100 µM | > 100 | 18 µM | > 100 µM | > 100 µM | 77.3 µM | > 100 µM | > 100 | 29 | 12.9 µM | 12.5 µM | 7.11 µM | 1.47 µM | 5.74 µM | 29.9 µM | 17.5 µM | 21.8 µM | 20 µM | 10.5 µM |
| O=C(c1ccccc1)c1cn(/N=C\c2ccccc2)c(=O)nc1-c1ccccc1 | > 100 µM | > 100 µM | > 100 | > 100 µM | > 100 µM | > 100 µM | > 100 µM | > 100 µM | > 100 | > 100 |  |  |  |  |  |  |  |  |  |  |
| O=C(O)CCc1nn2c(nc1=O)sc1ccc3ccccc3c12 | > 100 µM | > 100 µM | > 100 | > 100 µM | > 100 µM | > 100 µM | > 100 µM | > 100 µM | > 100 | > 100 |  |  |  |  |  |  |  |  |  |  |
| N#Cc1cccc(/C=N/N=C(\N)NO)c1 | > 100 µM | > 100 µM | > 100 | > 100 µM | > 100 µM | > 100 µM | > 100 µM | > 100 µM | > 100 | > 100 |  |  |  |  |  |  |  |  |  |  |
| Cc1cnc(C(=O)NNc2nc3sc4c(c3c(=O)n2C)C(C)CCC4)cn1 (stereo not given) | 9.13 µM | 6.19 µM | > 100 | 1.75 µM | 2.09 µM | 5.01 µM | 4.55 µM | 5.45 µM | 5.78 | 2.32 | 0.292 µM | 0.788 µM | 0.433 µM | 0.304 µM | 0.163 µM | 0.628 µM | 0.51 µM | 0.425 µM | 0.56 µM | 0.228 µM |
| Cc1ncc(C(=O)Nc2ccc(CN3CCN(C)CC3)c(C(F)(F)F)c2)cc1C#Cc1cnc(N)cc1C#N | 3.38 µM | 2.38 µM | 3.21 | 0.8 µM | 2.64 µM | 1.8 µM | 2.32 µM | 4.67 µM | 3.44 | 4.02 | 1.12 µM | 0.0481 µM | 0.00167 µM | 0.0709 µM | 0.144 µM | 0.401 µM | 0.305 µM | 2.37 µM | 1.21 µM | 1.63 µM |
| C=CCC1C(=O)CC2(C)CC(=O)C(CC=C)C12C (stereo not given) | > 100 µM | > 100 µM | > 100 | > 100 µM | > 100 µM | > 100 µM | > 100 µM | > 100 µM | > 100 | > 100 |  |  |  |  |  |  |  |  |  |  |
| CCCSS[C@H]1NC(=O)[C@H]1NC(=O)COc1ccccc1 | 41.4 µM | 36.3 µM | 28.6 | 30.2 µM | 31.9 µM | > 100 µM | 29.8 µM | > 100 µM | 44 | 31.8 |  |  |  |  |  |  |  |  |  |  |
